Each structure is given as a SMILES string.

This experiment addresses T1, AtSUC2 (Arabidopsis thaliana, UniProt Q39231).
T1 construct: gene SUC2; full coding region in plasmid pDR-R1-R2-HIS3 (derived from pDR 192), expressed in Saccharomyces cerevisiae RS453 cells
T1 sequence (Q39231 1-512): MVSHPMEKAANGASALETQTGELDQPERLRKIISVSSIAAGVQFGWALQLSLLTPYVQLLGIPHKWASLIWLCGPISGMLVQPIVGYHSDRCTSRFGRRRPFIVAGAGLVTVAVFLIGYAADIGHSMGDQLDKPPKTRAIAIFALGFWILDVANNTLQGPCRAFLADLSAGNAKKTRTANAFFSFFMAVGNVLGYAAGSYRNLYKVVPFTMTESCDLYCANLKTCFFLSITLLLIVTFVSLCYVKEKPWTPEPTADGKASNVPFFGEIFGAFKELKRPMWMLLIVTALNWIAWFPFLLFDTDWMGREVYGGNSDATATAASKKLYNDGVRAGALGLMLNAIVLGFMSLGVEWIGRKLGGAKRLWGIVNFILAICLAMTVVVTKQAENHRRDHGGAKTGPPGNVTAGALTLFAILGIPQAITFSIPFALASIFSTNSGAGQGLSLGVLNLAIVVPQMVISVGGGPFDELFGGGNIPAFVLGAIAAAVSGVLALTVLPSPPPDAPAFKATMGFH
Briefly: […]sucrose uptake into AtSUC2-transformed yeast, empty vector subtracted. In kind it is cell-based. The note with it: read-out: Inibition^b (%).

On to `CC(C(=O)NCc1cn([C@@H]2O[C@H](CO)[C@@H](O)[C@H](O)[C@H]2O)nn1)n1cc(C#N)c(-c2cccc(Cl)c2Cl)c1` (stereo partly drawn) [D-GFC, D-glucose–fenpiclonil conjugate], for which the inhibition at 500 µM is 81.5%.

These data come from publication PMC5853465, “Use of D-glucose–fenpiclonil conjugate as a potent and specific inhibitor of sucrose carriers” (Journal of Experimental Botany, 2017).
